Experimental data from patent publication US9937250B2, “Immunogenic tumor associated stromal cell antigen peptides and methods of their use” (University of Pittsburgh—Of the Commonwealth System of …, priority 2011, dated 2018).

Test system: tumor-associated pericytes and VEC
Assay: Day 60 splenic CD8+ T cell IFN-γ response in mice cured of B16 by vaccination
Assay type: cell-based, HHD mice
Details: 60 days after tumor inoculation, IFN-γ ELISA (FIG. 12)
Text: HHD mice bearing established day seven B16 melanomas were therapeutically vaccinated with peptides derived from the TASA DLK1 or RGS5 as described in FIG. 11B. Tumors regressed to a non-detectable level over the next two weeks. Sixty days after tumor inoculation, CD8^+ T cells were MACS-isolated from the spleens of these animals and evaluated for IFN-γ production (by ELISA) in response to pericytes and VEC (flow-sorted from day 19 untreated B16 tumors or tumor-uninvolved kidneys of B16-bearing HHD mice), as well as, HLA-A2^+ T2 cells (control or pulsed with the indicated peptides). *p<0.05 versus anti-class I mAb blockade (when evaluating responses against pericytes, VEC or B16 tumor cells) or T2 cells only (when evaluating anti-peptide responses). […]
Evaluation of Specific CD8^+ T Cell Responses in HHD Mice. MACS (Miltenyi Biotec) CD8^+ splenocytes were harvested (from 3 mice/group) 7 days after the second round of DC-based vaccination (i.e. day 21 after tumor inoculation) and analyzed for reactivity against unpulsed T2 cells, TBVA peptide-pulsed T2 cells, or day 19 (flow-sorted) B16-derived PDGFRβ^+CD31^negH-2K^b(neg) pericytes or PDGFRβ^negCD31^+H-2K^b(neg) VEC isolated as previously described (Zhao et al., Mol Ther., 19:805-814, 2011). […] After 48 h, supernatants were analyzed for mIFN-γ content by specific ELISA (BD-Biosciences; lower detection limit=31.3 pg/ml). […]

LAALPHSCL (listed as Homo sapiens)
Tc1 recognition of tumor pericytes/VEC by splenic CD8+ T cells of cured mice: clear Tc1 recognition of tumor (but not tumor-uninvolved kidney) pericytes
